Measured values from US20050192273A1, “Therapy for psychoses combining an atypical antipsychotic and an mglu2/3 receptor agonist” (priority 2002, published 2005).
Entries after “also recorded” stand apart in the source; their conditions may differ.

Assays:
[1] = test system: PCP-induced motor activation (ambulations); test: PCP-induced motor activation (ambulations) in rats; type: in vivo, rat; conditions: PCP 5 mg/kg s.c., 60 min
Experimental: In the present experiments, studies were performed in accordance with Eli Lilly and Company animal care and use policies. Male Sprague-Dawley rats (250-300 g) were group-housed (maximum of seven rats per cage) under standard laboratory conditions with ad libitum access to food and water (12 h light/dark cycle), for at least 1 day before use.
Activity Assessment compounds were tested against PCP-induced motor activation (ambulations) in rats. Behavioral parameters were monitored in transparent, shoe-box cages that measured 45×25×20 cm, with a 1 cm depth of wood chips on the cage floor and a metal grill on top of the cage. Rectangular photocell monitors (Hamilton Kinder, Poway, Calif.) with a bank of […] (8×4 formation) surrounded each test cage. A lower rack of photocell beams was positioned 5 cm above the cage floor to enable detection of the location of the animals body, while an upper bank positioned 10 cm above the first tabulated rearing activity. Ambulations (locomotor activity) and rearing were recorded by the computer and stored for each test session as discussed in Male Sprague-Dawley rats were generally food-fasted 12-18 hours prior to the experiment. In some experiments, rats were allowed food and water ad libitum prior to the experiment. On the test day animals were placed in the test cage for a 30 min habituation period before to testing to allow for acclimation to the test cage environment. Following this habituation period, animals were administered challenges of phencyclidine (PCP) (5 mg/kg s.c.) or 0.9% NaCl vehicle (1 ml/kg) and behavioral assessment began immediately following their administration. Animals were monitored over a 60 min period in all instances. Test drugs or vehicle were administered at various pretreatment times prior to the PCP challenge.
Statistical analysis. Statistical Analysis were carried out using the GraphPad PRISM statistical/graphing package (GraphPad, SanDiego, Calif.). Data were analyzed using a one-way analysis of variance (ANOVA) and post-hoc comparisons were performed using Dunnett's multiple comparisons test.
The rats were tested 30 minutes post-injection of the test compound or vehicle. Behaviors were monitored over a 60 minute time period following S.C. injection of PCP or vehicle. Data (mean±S.E.) are presented as the total number of behaviors expressed during the timer period.

human mGlu3 = molecular target: T1, human mGlu3 (Homo sapiens, UniProt Q14832); conditions: decrease forskolin-stimulated cAMP, mean ± S.E.M., read-out: EC50 (nM) (Agonist Activity); cited from earlier work
T1 construct: expressed in transfected cells; host or cells: RGT cells (cells expressing the rat glutamate transporter)

human mGlu1 = molecular target: T2, human mGlu1 (Homo sapiens, UniProt Q13255); conditions: increase PI hydrolysis, cited from earlier work
T2 construct: expressed in transfected cells; host or cells: RGT cells (cells expressing the rat glutamate transporter)
T2 sequence (Q13255 19-1194): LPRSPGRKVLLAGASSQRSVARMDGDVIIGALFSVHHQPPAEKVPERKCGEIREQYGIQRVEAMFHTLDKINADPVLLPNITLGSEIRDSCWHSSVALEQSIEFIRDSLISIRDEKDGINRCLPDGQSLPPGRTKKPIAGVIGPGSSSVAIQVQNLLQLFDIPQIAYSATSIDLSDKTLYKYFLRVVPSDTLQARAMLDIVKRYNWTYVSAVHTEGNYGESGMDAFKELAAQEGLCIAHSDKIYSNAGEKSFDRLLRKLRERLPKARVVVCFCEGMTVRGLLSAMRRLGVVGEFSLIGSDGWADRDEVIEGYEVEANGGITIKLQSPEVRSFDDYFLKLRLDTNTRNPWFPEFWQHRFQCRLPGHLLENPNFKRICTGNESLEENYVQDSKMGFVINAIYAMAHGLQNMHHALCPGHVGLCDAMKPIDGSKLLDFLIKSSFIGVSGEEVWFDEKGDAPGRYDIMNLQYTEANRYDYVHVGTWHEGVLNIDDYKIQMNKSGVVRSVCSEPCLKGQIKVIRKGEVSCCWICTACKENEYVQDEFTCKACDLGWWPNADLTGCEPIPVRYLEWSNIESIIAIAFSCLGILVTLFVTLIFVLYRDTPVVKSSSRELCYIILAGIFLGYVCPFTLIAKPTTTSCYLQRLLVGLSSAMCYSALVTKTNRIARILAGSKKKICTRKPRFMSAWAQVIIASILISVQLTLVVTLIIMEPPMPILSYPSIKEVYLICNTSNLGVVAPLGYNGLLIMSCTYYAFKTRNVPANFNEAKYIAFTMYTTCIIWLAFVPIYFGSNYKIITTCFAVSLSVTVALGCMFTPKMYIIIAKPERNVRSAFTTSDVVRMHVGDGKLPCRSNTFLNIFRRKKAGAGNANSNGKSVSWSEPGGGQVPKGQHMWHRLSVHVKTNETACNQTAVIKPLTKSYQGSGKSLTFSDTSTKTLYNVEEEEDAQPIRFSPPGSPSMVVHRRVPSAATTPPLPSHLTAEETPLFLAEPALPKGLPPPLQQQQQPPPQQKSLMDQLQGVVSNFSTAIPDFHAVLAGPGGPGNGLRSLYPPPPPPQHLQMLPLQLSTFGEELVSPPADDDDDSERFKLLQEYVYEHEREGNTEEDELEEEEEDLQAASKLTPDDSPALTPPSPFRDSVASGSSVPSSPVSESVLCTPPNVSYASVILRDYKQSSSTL

human mGlu4 = molecular target: T3, human mGlu4 (Homo sapiens, UniProt Q14833); conditions: decrease forskolin-stimulated cAMP, cited from earlier work
T3 construct: expressed in transfected cells; host or cells: RGT cells (cells expressing the rat glutamate transporter)
T3 sequence (Q14833 33-912): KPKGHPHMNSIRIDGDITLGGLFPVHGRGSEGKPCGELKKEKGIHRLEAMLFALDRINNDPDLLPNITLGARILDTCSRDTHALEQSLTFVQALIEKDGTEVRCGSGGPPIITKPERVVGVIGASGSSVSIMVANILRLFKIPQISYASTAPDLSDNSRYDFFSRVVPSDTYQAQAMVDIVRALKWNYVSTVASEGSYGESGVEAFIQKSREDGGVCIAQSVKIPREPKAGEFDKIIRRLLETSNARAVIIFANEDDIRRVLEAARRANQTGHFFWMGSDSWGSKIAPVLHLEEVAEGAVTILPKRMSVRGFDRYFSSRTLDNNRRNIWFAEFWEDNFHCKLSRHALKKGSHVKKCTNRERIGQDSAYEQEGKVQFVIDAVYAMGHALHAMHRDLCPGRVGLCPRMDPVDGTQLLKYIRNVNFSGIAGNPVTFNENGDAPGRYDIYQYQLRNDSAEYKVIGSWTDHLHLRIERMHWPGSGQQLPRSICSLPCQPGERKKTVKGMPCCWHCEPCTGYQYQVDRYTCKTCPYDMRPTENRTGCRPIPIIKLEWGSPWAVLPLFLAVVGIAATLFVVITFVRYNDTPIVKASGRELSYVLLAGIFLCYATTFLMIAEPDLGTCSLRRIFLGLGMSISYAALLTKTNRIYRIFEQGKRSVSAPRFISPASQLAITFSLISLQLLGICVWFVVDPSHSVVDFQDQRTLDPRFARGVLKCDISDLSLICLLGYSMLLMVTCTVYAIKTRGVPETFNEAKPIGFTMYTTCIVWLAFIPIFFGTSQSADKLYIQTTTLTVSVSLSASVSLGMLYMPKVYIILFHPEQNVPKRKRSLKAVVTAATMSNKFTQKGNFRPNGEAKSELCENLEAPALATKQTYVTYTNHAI

human mGlu7 = molecular target: T4, human mGlu7 (Homo sapiens, UniProt Q14831); conditions: decrease forskolin-stimulated cAMP, cited from earlier work
T4 construct: expressed in transfected cells; host or cells: RGT cells (cells expressing the rat glutamate transporter)
T4 sequence (Q14831 35-915): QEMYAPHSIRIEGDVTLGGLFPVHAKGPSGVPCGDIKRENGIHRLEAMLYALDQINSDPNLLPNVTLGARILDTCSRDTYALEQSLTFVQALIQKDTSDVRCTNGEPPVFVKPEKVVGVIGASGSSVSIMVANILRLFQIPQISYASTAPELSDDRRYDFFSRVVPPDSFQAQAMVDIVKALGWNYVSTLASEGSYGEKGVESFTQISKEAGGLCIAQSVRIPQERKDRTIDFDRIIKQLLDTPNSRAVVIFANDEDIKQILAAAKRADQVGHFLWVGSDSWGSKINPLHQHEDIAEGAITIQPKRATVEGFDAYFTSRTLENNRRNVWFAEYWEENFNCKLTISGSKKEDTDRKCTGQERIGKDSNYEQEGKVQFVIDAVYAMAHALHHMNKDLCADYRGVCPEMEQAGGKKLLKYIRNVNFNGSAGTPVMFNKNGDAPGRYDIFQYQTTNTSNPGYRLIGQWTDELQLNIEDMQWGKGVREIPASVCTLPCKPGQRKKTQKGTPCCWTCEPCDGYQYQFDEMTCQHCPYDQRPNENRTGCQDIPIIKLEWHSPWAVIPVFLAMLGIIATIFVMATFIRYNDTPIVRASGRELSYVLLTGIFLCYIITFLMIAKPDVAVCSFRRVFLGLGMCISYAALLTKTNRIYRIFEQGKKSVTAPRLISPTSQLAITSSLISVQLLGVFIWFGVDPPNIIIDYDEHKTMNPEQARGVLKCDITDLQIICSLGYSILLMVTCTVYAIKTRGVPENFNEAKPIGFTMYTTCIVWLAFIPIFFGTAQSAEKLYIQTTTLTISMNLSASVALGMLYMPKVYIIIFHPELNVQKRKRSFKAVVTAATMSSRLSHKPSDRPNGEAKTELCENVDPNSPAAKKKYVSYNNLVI

human mGlu8 = molecular target: T5, human mGlu8 (Homo sapiens, UniProt O00222); conditions: decrease forskolin-stimulated cAMP, mean ± S.E.M., read-out: EC50 (nM) (Agonist Activity); cited from earlier work
T5 construct: expressed in transfected cells; host or cells: RGT cells (cells expressing the rat glutamate transporter)
T5 sequence (O00222 34-908): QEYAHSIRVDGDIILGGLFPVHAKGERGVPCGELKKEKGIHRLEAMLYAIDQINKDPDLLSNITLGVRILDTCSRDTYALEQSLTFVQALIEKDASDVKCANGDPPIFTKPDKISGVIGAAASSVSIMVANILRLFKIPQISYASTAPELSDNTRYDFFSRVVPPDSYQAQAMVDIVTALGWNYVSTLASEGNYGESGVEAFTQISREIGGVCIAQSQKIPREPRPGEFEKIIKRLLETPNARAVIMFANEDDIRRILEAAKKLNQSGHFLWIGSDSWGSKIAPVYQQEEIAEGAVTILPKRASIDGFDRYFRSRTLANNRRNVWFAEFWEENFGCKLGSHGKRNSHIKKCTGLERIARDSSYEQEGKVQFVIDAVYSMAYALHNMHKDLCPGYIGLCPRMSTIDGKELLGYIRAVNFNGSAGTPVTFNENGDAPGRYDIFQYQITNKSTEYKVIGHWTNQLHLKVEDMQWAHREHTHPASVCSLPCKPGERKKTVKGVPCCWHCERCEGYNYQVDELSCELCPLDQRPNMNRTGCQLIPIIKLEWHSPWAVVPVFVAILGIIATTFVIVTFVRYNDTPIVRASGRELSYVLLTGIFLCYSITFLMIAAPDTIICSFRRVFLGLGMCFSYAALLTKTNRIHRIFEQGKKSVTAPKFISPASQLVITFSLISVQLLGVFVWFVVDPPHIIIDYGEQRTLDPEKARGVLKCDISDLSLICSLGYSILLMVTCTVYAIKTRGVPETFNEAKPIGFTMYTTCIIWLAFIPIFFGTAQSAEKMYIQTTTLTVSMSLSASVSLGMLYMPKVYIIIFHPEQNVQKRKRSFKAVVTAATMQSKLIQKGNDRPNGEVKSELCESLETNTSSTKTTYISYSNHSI

human mGlu2 = molecular target: T6, human mGlu2 (Homo sapiens, UniProt Q14416); conditions: decrease forskolin-stimulated cAMP, mean ± S.E.M., read-out: EC50 (nM) (Agonist Activity); cited from earlier work
T6 construct: expressed in transfected cells; host or cells: RGT cells (cells expressing the rat glutamate transporter)

human mGlu5 = molecular target: T7, human mGlu5 (Homo sapiens, UniProt P41594); conditions: increase PI hydrolysis, cited from earlier work
T7 construct: expressed in transfected cells; host or cells: RGT cells (cells expressing the rat glutamate transporter)
T7 sequence (P41594 21-1180 isoform P41594-2 limits assumed): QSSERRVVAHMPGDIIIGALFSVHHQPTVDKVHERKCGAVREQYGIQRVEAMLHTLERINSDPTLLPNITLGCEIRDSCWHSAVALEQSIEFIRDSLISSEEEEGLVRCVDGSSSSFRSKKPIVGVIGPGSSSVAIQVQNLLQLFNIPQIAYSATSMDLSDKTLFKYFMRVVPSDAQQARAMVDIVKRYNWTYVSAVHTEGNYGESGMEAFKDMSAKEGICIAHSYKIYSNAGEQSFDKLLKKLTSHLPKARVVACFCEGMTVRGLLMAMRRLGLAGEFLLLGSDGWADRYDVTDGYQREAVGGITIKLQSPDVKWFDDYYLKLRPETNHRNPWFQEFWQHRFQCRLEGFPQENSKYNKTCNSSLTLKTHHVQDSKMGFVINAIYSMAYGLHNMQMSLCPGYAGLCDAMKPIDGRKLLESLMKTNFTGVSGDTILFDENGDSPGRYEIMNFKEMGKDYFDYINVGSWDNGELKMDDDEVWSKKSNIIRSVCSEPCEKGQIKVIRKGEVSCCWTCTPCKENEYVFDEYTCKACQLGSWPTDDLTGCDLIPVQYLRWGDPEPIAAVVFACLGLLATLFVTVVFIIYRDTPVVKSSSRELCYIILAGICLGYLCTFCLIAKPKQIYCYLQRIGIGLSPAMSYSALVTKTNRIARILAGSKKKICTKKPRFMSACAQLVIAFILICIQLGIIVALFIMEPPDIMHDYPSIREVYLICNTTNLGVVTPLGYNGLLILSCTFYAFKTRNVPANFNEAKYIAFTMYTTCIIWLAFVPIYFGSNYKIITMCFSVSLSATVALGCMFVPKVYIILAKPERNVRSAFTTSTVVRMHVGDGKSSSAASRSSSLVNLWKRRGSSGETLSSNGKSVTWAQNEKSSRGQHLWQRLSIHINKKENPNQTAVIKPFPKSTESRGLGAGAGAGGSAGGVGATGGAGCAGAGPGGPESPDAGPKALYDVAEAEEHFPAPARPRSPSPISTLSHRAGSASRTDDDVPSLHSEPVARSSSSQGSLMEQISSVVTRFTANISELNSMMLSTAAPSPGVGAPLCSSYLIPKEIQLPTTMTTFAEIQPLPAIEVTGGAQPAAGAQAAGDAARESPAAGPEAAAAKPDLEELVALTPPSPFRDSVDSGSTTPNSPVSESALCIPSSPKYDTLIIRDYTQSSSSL

[2] = read-out: EC50 (nM) (Agonist Activity)
[3] = read-out: IC50 (nM) (Antagonist Activity)

Structure (SMILES): N[C@]1(C(=O)O)C[C@H](F)[C@@H]2[C@@H](C(=O)O)[C@@H]21 [LY459477, (1S,2R,4S,5S,6S)-2-amino-4-fluorobicyclo[3.1.0]hexane-2,6-dicarboxylic acid]
- effect on PCP-induced ambulations ([1]; single agent 1 mg/kg): relatively small impact; also recorded: statistically insignificant effect

Structure (SMILES): NC1(C(=O)O)CCC2C(C(=O)O)C21 (single isomer, unassigned; (+)) [LY354740, (+)-2-aminobicyclo[3.1.0]hexane-2,6-dicarboxylic acid]
- EC50 (human mGlu3): 24.3 ± 0.5 nM
- EC50 (human mGlu1; [2]): > 100000 nM
- IC50 (human mGlu1; [3]): > 100000 nM
- EC50 (human mGlu4; [2]): > 100000 nM
- IC50 (human mGlu4; [3]): > 100000 nM
- EC50 (human mGlu7; [2]): > 100000 nM
- IC50 (human mGlu7; [3]): > 100000 nM
- EC50 (human mGlu8): 36000 nM
- EC50 (human mGlu2): 5.1 ± 0.3 nM
- effect on PCP-induced ambulations ([1]; single agent 10 mg/kg): statistically insignificant effect
- EC50 (human mGlu5; [2]): > 100000 nM
- IC50 (human mGlu5; [3]): > 100000 nM

Structure (SMILES): N[C@@]1(C(=O)O)CO[C@H]2[C@H](C(=O)O)[C@H]21 [LY379268, 1R,4R,5S,6R-4-amino-(2-oxabicyclo[3.1.0]hexane)-4,6-dicarboxylic acid]
- effect on PCP-induced ambulations ([1]; single agent 1 mg/kg): smaller and statistically insignificant effect

Structure (SMILES): Cc1cc2c(s1)Nc1ccccc1N=C2N1CCN(C)CC1 [Olanzapine, 2-methyl-4-(4-methyl-1-piperazinyl)-10H-thieno[2,3-b][1,5]benzodiazepine, reference compound]
- effect on PCP-induced ambulations ([1]; single agent 1 mg/kg): significant impact; also recorded: minimal impact
